# Experimental data reported in patent US8309068B2, “Isolated polypeptides and methods of improving muscle strength” (Myostin Therapeutics Pty Ltd., priority 2006, dated 2012).
# “Also recorded” adds a separate entry of the source. Where no end group is shown, it is not given here.
# Experiments:
# [1] = test system: C57B mice injected with Dexamethasone; assay: In vivo cachexia trial (Dexamethasone-induced)
# Experimental: A study of chronic cachexia was designed whereby C57B mice, 4 weeks of age, were injected with the glucocorticoid drug Dexamethasone daily at a concentration of 1 mg/kg body weight. Three treatment groups were designed: 5 mice receiving daily injections of saline, 5 mice receiving daily injections of Dexamethasone and 5 mice receiving daily injections of Dexamethasone plus 300 antagonist at a concentration of 6μg/g body weight. Body weight of the mice was recorded daily and monitored closely for signs of cachexia. Food and water consumption was recorded to ensure that loss in body weight was not due to a loss of appetite or thirst. Body weights, fat-pad weights, and MyoD and Pax7 expression were assessed.
# C2C12 myoblasts = assay: C2C12 myoblast proliferation assay (methylene blue endpoint); format: cell-based, murine; settings: for proliferation capacity of myoblasts compared to control: 1 μg/ml or 5 μg/ml over 48 or 72 hours; for concentration at which the highest myoblast proliferation rate was observed: 48 hour time point
# Experimental: A polypeptide of the invention, or a fragment, variant or derivative thereof has the biological function of antagonising myostatin activity. To determine whether a polypeptide of the invention, or a fragment, variant or derivative thereof, is able to antagonise myostatin activity, such activity can be tested by growing myoblasts in the presence or absence (control) of a candidate polypeptide of the invention. […]
# (§1) The myoblast proliferation assay was carried out in uncoated 96-well microtitre plates. C2C12 cultures were seeded at 1000 cells/well. Following a 16-hour attachment period, test media containing either recombinant wild type myostatin or different myostatin antagonists were added and cells were incubated for a further 48 or 72 hour period. For competition assay, wild type myostatin was competed with different concentrations of myostatin antagonists prior to the addition into the media. After the incubation period, proliferation was assessed using methylene blue photometric endpoint assay as previously described (Thomas et al, 2000).
# myostatin [2] = assay: Myoblast chemotaxis assay, recovery of myostatin chemo-inhibition by antagonists; format: cell-based
# Experimental: Primary myoblasts were cultured from the hind limb muscle of young (4 to 6 week old) or old (24 month old) mice, according to the published protocols (Allen et al., 1997; Partridge, 1997). Briefly, muscles were minced, and digested in 0.2% collagenase type 1A for 90 min. Cultures were enriched for myoblasts by pre-plating on uncoated plates for 3 hours. Myoblast cultures were maintained in growth media (GM) supplemented with 20% fetal calf serum (FCS), 10% HS and 1% CEE on 10% Matrigel coated plates, at 37° C./5% CO2. The extent of culture purity was assessed by flow cytometry analysis of MyoD expression after 48 hours in culture. Cells were harvested using trypsin, suspended at a concentration of 10^6 cells/200 μl and fixed overnight in 5 ml 70% ethanol at −20° C. Staining was performed for 30 min at room temperature using rabbit polyclonal anti-MyoD, 1:200 (Santa Cruz), followed by Alexa fluor 488 anti-rabbit conjugate, 1:500 (Molecular Probes). Analysis was carried out in duplicate with 10^4 cell events collected in each assay. Debris was excluded by gating on forward and side scatter profiles. Cells were analyzed by FACScan (Becton Dickinson). Macrophages were isolated by a peritoneal lavage technique and/or derived from bone marrow Zymosan-activated mouse serum (ZAMS) was prepared according to the published protocol (Colditz and Movat, 1984).
# For the chemotaxis assay of myoblasts, a first assay was carried out on myoblasts from 2 year old mice as follows. DMEM containing 2% horse serum (HS), 5% chicken embryo extract (CEE) plus dialysis buffer was used as positive control. […] Plain DMEM was used as negative control. On a 24-well plate, the bottom wells were filled with test or control media. Seventy-five thousand cells were added to the top wells containing polyethylene terephthalate (PET) 0.8 μm membranes coated with 1% Matrigel. The plate was incubated for 7 h at 37° C., 5% CO2. […] The membrane was then fixed, stained in Gill's hematoxylin and wet mounted on slides. Migrated cells were counted on four representative fields per membrane and the average number plotted. The results are shown in FIG. 6 (myoblast migration from old mice) and FIG. 7 (myoblast migration from young mice).
# myostatin [3] = assay: C2C12 myoblast proliferation competition assay: wild type myostatin competed with antagonists; format: cell-based; settings: antagonist 1, 5 and 10 μg/ml; myostatin 2.25 μg/ml
# Experimental: as §1, with “[…] C2C12 myoblasts were grown in Dulbecco's modified eagle medium according to the standard techniques (Thomas et al, 2000). The” for “The”
# [4] = test system: Human skeletal muscle myoblasts; assay: Human myoblast proliferation assay; format: cell-based; settings: 1, 5 or 10 μg/ml; 144 hours
# Experimental: (§2) Human skeletal muscle myoblasts (Cambrex, USA) or primary ovine myoblasts were grown in Dulbecco's Modified Eagle Medium containing 20% FBS, 10% Horse serum and 0.5% chicken embryo extract according to the standard techniques. The myoblast proliferation assay was carried out in uncoated 96-well microtitre plates. Cell cultures were seeded at 2000 cells/well. Following a 24-hour attachment period, test media supplemented with 5% FCS containing either buffer as a control or different myostatin antagonists (300, 310 or 320) were added at 1, 5 and 10 μg/ml and cells were incubated for a further 144 hour period (for human cells) or 48 hours (for ovine cells). After the incubation period, proliferation was assessed using methylene blue photometric endpoint assay as previously described (Thomas et al, 2000).
# primary ovine myoblasts = assay: Ovine myoblast proliferation assay; format: cell-based; settings: 1, 5 or 10 μg/ml; 48 hours
# Experimental: as §2
# satellite cells = assay: Single muscle fibre satellite cell activation assay (PCNA labeling); format: cell-based, mice; settings: single fibres from old (2 year old) mice; 5 μg/ml; 24 or 48 hours
# Experimental: Single fibres were isolated as previously described Rosenblatt et al., (1995). Briefly, 1 and 24 month old wild-type mice were euthanized by CO2 gas followed by cervical dislocation. TA were dissected out and digested in 0.2% (w/v) type 1A collagenase (>260 CDU/mg, Sigma) in Dulbecco's modified Eagle medium (DMEM) (Invitrogen) for 60 minutes at 37° C. Muscles were transferred to DMEM +10% horse serum (HS) +0.5% chicken embryo extract (CEE) and fibres were separated by gentle trituration. Isolated fibres were transferred to 4 well chamber slides (Becton Dickinson) coated with 10% matrigel (Becton Dickinson) and fixed with 100% ice cold methanol for 10 minutes after culturing up to 72 hours at 37° C. in 5% CO2.
# Proliferating Cell Nuclear Antigen (PCNA) is expressed in cells that are actively undergoing cell cycle but not in quiescent cells. […] However, upon activation, satellite cells are activated to express PCNA and regenerate the muscle by replenishing the muscle fibres. Thus PCNA is a very reliable antigen to marker for the activated satellite cells.
# In order to determine the effect of myostatin antagonists on satellite cell activation, single muscle fibres from TA muscle of young (1 month) or old (24 month) wild type mice were cultured in presence of 5 μg/ml of myostatin antagonist 320, 310 or 300, in culture media for 24, 48 and 72 hours and fixed with methanol and washed in PBS. The fixed fibres were permeabilised in 0.5% TritonX-100 in PBS for 10 minutes, blocked in 10% normal goat serum and 0.35% carrageenan lambda in PBS for 30 minutes at room temperature then incubated with a 1:100 dilution of anti-PCNA antibody in blocker overnight. Primary antibody was detected using goat anti-mouse-alexa fluor 546 and fibres were counterstained with DAPI. PCNA positive activated satellite cells were counted under microscope and expressed as a percent of total myonuclei.
# [5] = Dexamethasone, right gastrocnemius, p<0.05
# [6] = myoblasts from old (2 year old) mice, antagonist added at 5 μg/ml, myostatin 2.5 μg/ml
Molecule,proliferation capacity of myoblasts compared to control (C2C12 myoblasts),rescue of chemo-inhibiting effects of myostatin on myoblast migration (myostatin [2]; [6]),rescue of the proliferation-inhibiting effects of myostatin on myoblasts (myostatin [3]),proliferation capacity of human myoblasts compared to control [4],proliferation capacity of ovine myoblasts compared to control (primary ovine myoblasts),percentage of activated satellite cells (satellite cells),concentration at which the highest myoblast proliferation rate was observed (C2C12 myoblasts),further results
"C[C@@H]1C[C@H]2[C@@H]3CCC4=CC(=O)C=C[C@]4(C)[C@@]3(F)[C@@H](O)C[C@]2(C)[C@@]1(O)C(=O)CO [Dexamethasone, reference compound]",–,–,–,–,–,–,–,"average body weight compared with saline injected controls ([1]; Dexamethasone 1 mg/kg daily, 22 days): reduction in average body weight; increase in left retroperitoneal fat-pad weight compared to saline ([1]; Dexamethasone only): 62.9%; increase in right retroperitoneal fat-pad weight compared to saline ([1]; Dexamethasone only): 60.4%; left and right retroperitoneal and inguinal fat-pad weights compared to saline ([1]; Dexamethasone only, p<0.05): statistically significant increases; MyoD expression (Western blot) [1, 5]: significant down-regulation; Pax7 expression (Western blot) [1, 5]: significant down-regulation"
"myostatin antagonist 280: recombinant peptide, amino acids 267-280 of bovine myostatin, with tags; contains only one cysteine residue; inactive comparison (DFGLDCDEHSTESR; also: with tags; UniProt O18836 267-280, looked up, fragment)",did not show activity above the control,–,–,–,–,–,–,biological (myostatin antagonist) activity of the peptide (C2C12 myoblasts; listed as 280): appears to be inactive; also recorded: not biologically active
"myostatin antagonist 310: recombinant peptide, amino acids 267-310 of bovine myostatin, with N terminal and C terminal tag (SEQ ID NO: 5) (DFGLDCDEHSTESRCCRYPLTVDFEAFGWDWIIAPKRYKANYCS; cysteine pairing not given here; also: N- and C-terminal tags; listed as Homo sapiens)",significantly enhanced,rescued to levels similar to those observed in the control,rescued to levels similar to those observed in the positive control,significantly enhanced,significantly enhanced,Significant increases,5 µg/mL,rescue of chemo-inhibiting effects of myostatin on myoblast migration (myostatin [2]; myoblasts from young (1 month old) mice): rescued the migration of myostatin cells to control levels
"myostatin antagonist 320: recombinant peptide, amino acids 267-320 of bovine myostatin, with N terminal and C terminal tag (SEQ ID NO: 4) (DFGLDCDEHSTESRCCRYPLTVDFEAFGWDWIIAPKRYKANYCSGECEFVFLQK; cysteine pairing not given here; also: N- and C-terminal tags; listed as Homo sapiens)",significantly enhanced,rescued to levels similar to those observed in the control,rescued to levels similar to those observed in the positive control,significantly enhanced,significantly enhanced,Significant increases,5 µg/mL,–
"myostatin antagonist 329: recombinant peptide, amino acids 267-329 of bovine myostatin, with N terminal and C terminal tag (SEQ ID NO: 3) (protein, listed as Homo sapiens, N- and C-terminal tags) DFGLDCDEHSTESRCCRYPLTVDFEAFGWDWIIAPKRYKANYCSGECEFVFLQKYPHTHLVHQ",significantly enhanced,–,–,–,–,–,10 µg/mL,–
